Key:
Format in all cases: cell-based
AA prostate cancer cells = experiment: FLIRR vs intensity-based redox ratio, CoCl2 pretreatment and glucose stimulation
PCa cells [1] = experiment: Trp-NAD(P)H FRET interaction by FLIM-FRET after doxorubicin treatment; conditions: as early as 15 mins of treatment, real time, before induction of apoptosis
Text: Auto-fluorescent biomarker, tryptophan (Trp), has also been linked to cancer investigations. Trp, an essential amino acid, is a precursor of niacin, which in turn is a precursor of NAD (P) H. Increased Trp catabolismand increased indoleamine 2,3-dioxygenase (IDO) activity in the kynurenine pathway are linked to cancer development and progression. Therefore, probing Trp is clinically relevant. In general, Trp fluorescence intensity and lifetime mainly provide information on the protein composition, protein structure of which they are a part of and changes in overall cellular microenvironment. Trp is therefore used as a marker for protein abundance. […] In FLIM-FRET measurements, FRET events are identified if there is reduction in the donor lifetime, because of quenching of its fluorescence in the presence of the acceptor. […] The efficiency of energy transfer or E % is calculated from the following equation E=1-τm/τ0, where τm is the mean lifetime of Trp in cells and τ0=3.1 ns of unquenched Trp lifetime measured from Trp in solution. […]
FLIM instrumentation can include a 3-channel FLIM imaging system of a Zeiss LSM 780 confocal/multiphoton (MP) laser scanning system coupled to the Zeiss inverted epi-fluorescence microscope, which is controlled with the ZEN software (Carl Zeiss, Inc). […]

PCa cells [2] = experiment: FLIRR (NAD(P)H-a2%/FAD-a1%) by FLIM after doxorubicin treatment; conditions: as early as 15 mins of treatment, real time, before induction of apoptosis
Text: The enzyme-bound fractions of NAD (P) H (a2%) and FAD (a1%) and their lifetimes (tm) are used to quantify these metabolic changes, in particular with our novel NAD (P) H-a2%/FAD-a1% FLIM-based redox ratio. The commonly used intensity-based redox ratio [NAD (P) H/FAD], based predominantly on signals driven by mitochondrial OXPHOS is defined as a reduction of this ratio, due to the conversion of fluorescent NAD (P) H to non-fluorescent NAD+ and conversion of non-fluorescent FADH2 to fluorescent FAD. […]
FLIM instrumentation can include a 3-channel FLIM imaging system of a Zeiss LSM 780 confocal/multiphoton (MP) laser scanning system coupled to the Zeiss inverted epi-fluorescence microscope, which is controlled with the ZEN software (Carl Zeiss, Inc). […] The fluorescence decay per pixel was measured using 3-channel SPC-150 TCSPC board (Becker & Hickl, GmbH) where the SPCM software was used to acquire the FLIM data (v. 8.91). […]
The ratio of the bound NAD (P) H to bound FAD, the Fluorescence Lifetime Imaging Redox Ratio (FLIRR), is an optical biomarker to determine a cell's primary metabolic pathway with higher FLIRR values often consistent with a shift towards oxidative phosphorylation and lower values often associated with a shift towards glycolysis.

Compound | NADH-a2%/FAD-a1% ratio (AA prostate cancer cells) | Trp-NAD(P)H FRET interactions (PCa cells [1]) | FLIRR of metabolic co-enzymes NAD(P)H & FAD (PCa cells [2])
[Cl-].[Cl-].[Co+2] [CoCl2] | decrease |  | 
COc1cccc2c1C(=O)c1c(O)c3c(c(O)c1C2=O)C[C@@](O)(C(=O)CO)C[C@@H]3O[C@H]1C[C@H](N)[C@H](O)[C@H](C)O1 [doxorubicin] |  | increase | increase
